Measured values: publication PMC6273140, “Anti-Inflammatory Chemical Profiling of the Australian Rainforest Tree Alphitonia petriei (Rhamnaceae)” (Molecules, 2016)
Read-outs that look alike come from different tables or passages of the source.

Columns and labels:
[1] = Cell viability by the Alamar Blue assay (cytotoxicity); assay type: cell-based; settings: mouse, RAW 264.7, 24 h, mean ± SD, read-out: Cytotoxicity (LC50 in μM) (n = 8)
Experimental: (§1) RAW 264.7 macrophages were grown in 175 cm^2 flasks on DMEM containing 5% foetal bovine serum (FBS) that was supplemented with penicillin (100 μg/mL), streptomycin (100 μg/mL) and L-glutamine (2 mM). The cell line was maintained in 5% CO2 at 37 °C, with media being replaced every 3–4 days. Once cells had grown to confluence in the culture flask, they were removed using a rubber policeman, as opposed to using trypsin, which can remove membrane-bound receptors. The cell suspension was concentrated by centrifugation for 3 min at 900 rpm and re-suspended in a small volume of fresh DMEM (with 1% antibiotics and 5% FBS); cell densities were estimated using a Neubauer counting chamber. The cell concentration was adjusted with DMEM (with 1% antibiotics and 5% FBS) to obtain 60,000 cells/100 μL cell suspension. An aliquot of 100 μL of this cell suspension was dispensed into the wells of 96-well plates. Plates were incubated at 37 °C, 5% CO2 for 18 h before the activation experiments were carried out.
(§2) For assays, 90 μL of each concentration of compounds (8 concentrations made by serial dilution from 0 µg/mL to 36 µg/mL compound in DMEM) were added an hour prior to addition of 10 µL of activator. A combination of 10 μg·mL^−1 LPS and 10 U·mL^−1 (1 unit = 0.1 ng/mL) IFN-γ, were used for activation. After activation, the cells were incubated for 24 h at 37 °C and then NO, TNF-α and cell viability was determined. Unactivated cells (exposed to media alone) were used as negative control and activated cells as positive control.
One hundred microlitres of Alamar Blue solution (10% Alamar Blue (Resazurin) in DMEM media) was added to each well, incubated at 37 °C for 2 h. After incubation, fluorescence intensity was measured with the microplate reader (excitation at 530 nm and emission at 590 nm) and results were expressed as a percentage of the intensity of that in control cells, after background fluorescence was subtracted.
(§3) Data calculations were performed using MS-Excel 2010 software. IC50 values were obtained by using the sigmoidal dose–response function in GraphPad Prism. The results were expressed as mean ± standard deviation (SD).

[2] = system: NO production in LPS + IFN-γ activated RAW 264.7 macrophages; assay: Inhibition of LPS + IFN-γ induced nitric oxide production (Griess assay); assay type: cell-based; settings: for IC50: Mus musculus, read-out: NO Inhibition (IC50 in μM) (n = 8); for anti-inflammatory activity (in words): NO and TNF-α
Experimental: as §1, §2
Nitric oxide was determined by Griess reagent quantification of nitrite. Griess reagent was freshly made up of equal volumes of 1% sulfanilamide and 0.1% napthyethylene-diamine in 5% HCl. From each well, 50 µL of supernatant was transferred to a fresh 96-well plate and mixed with 50 µL of Griess reagent and measured at 540 nm in a POLARstar Omega microplate reader (BMG Labtech, Mornington, Australia). The concentration of nitrite was calculated using a standard curve with […] (0–500 μM), and linear regression analysis.
as §3

[3] = system: TNF-α production in LPS + IFN-γ activated RAW 264.7 macrophages; assay: Inhibition of LPS + IFN-γ induced TNF-α production (ELISA); assay type: cell-based; settings: for IC50: Mus musculus, read-out: TNF-α Inhibition (IC50 in µM) (n = 3)
Experimental: as §1, §2
The diluted supernatants were used for determination of TNF-α using a commercial sandwich ELISA (Peprotech) according to the manufacturer’s protocol. In brief, the capture antibody was used at a concentration of 1.5 μg·mL^−1 in PBS (1.9 mM NaH2PO4, 8.1 mM Na2HPO4, 154 mM NaCl) (pH 7.4). Serial dilutions of TNF-α standard from 0 to 10,000 pg·mL^−1 in diluent (0.05% Tween-20, 0.1% BSA in PBS) were used as internal standard. TNF-α was detected with a biotinylated second antibody and an Avidin peroxidase conjugate with TMB as detection reagent. The colour development was monitored at 655 nm, taking readings every 5 min. After approximately 30 min the reaction was stopped using 0.5 M sulphuric acid and the absorbance was measured at 450 nm using a POLARstar Omega microplate reader (BMG Labtech, Mornington, Australia), expressed as a percentage in control cells after conversion of the concentrations, using a standard curve constructed with defined concentrations of TNF-α. Curve fitting of this standard curve and extrapolation of experimental data were performed using non-linear regression analysis.
as §3

Bacillus subtilis = system: Bacillus subtilis; parameters: method as in earlier work; settings: cited from earlier work
SCC2095 OSCC cells = system: SCC2095 OSCC cells; parameters: method as in doi:10.1016/j.jff.2015.07.017; settings: read-out: suppression of proliferation IC50; cited from earlier work
SCC4 OSCC cells = system: SCC4 OSCC cells; parameters: method as in doi:10.1016/j.jff.2015.07.017; settings: read-out: suppression of proliferation IC50; cited from earlier work
[4] = system: 12-O-tetradecanoylphorbol 13 acetate (TPA)-induced topical inflammation in mice ears; parameters: method as in PMID 16697209; settings: cited from earlier work
[5] = system: NO production in LPS-stimulated RAW 264.7 cells; parameters: method as in PMID 19557361; settings: cited from earlier work
[6] = RAW 264.7 macrophages activated with LPS and IFN-γ
[7] = RAW264.7, RAW 264.7, LPS + IFN-γ, 24 h, Griess assay, mean ± SD
[8] = RAW264.7, RAW 264.7, LPS + IFN-γ, 24 h, ELISA, mean ± SD

For `CC(C)Cc1ccc(C(C)C(=O)O)cc1` (stereo not shown) [Ibuprofen, ibuprofen, reference compound], the CC50 at 24 h [1, 6] was greater than 1500 µM, the IC50 [2, 7] was 1160 ± 133 µM and the IC50 [3, 8] was 723 ± 261 µM.
In the case of `C=C(C)C1CCC2(C(=O)O)CCC3(C)C(CCC4C5(C)CC(=O)C(O)C(C)(C)C5CCC43C)C12` (stereo not shown) [2-ketobetulinic acid, reference compound], the antibacterial activity (Bacillus subtilis) is given as “showed antibacterial activity”.
For `C=C(C)[C@@H]1CC[C@]2(C(=O)O)CC[C@]3(C)[C@H](CC[C@@H]4[C@@]5(C)[C@@H](C(=O)O)[C@H](O)C(C)(C)[C@@H]5CC[C@]43C)C12` (stereo partly shown) [Compound 1, emmolic acid], the CC50 at 24 h [1] was greater than 36 µM, the IC50 ([2]; RAW264.7, 24 h) was greater than 36 µM and the “anti-inflammatory activity (in words)” value ([2]; RAW 264.7, LPS + IFN-γ) was “inactive”. It also gave an IC50 ([3]; RAW264.7, 24 h) greater than 36 µM.
In the case of `C=C(C)[C@@H]1CC[C@]2(C(=O)O)CC[C@]3(C)[C@H](CC[C@@H]4[C@@]5(C)CC[C@H](O)C(C)(C)[C@@H]5CC[C@]43C)[C@@H]12` [Compound 5, betulinic acid], the CC50 at 24 h [1, 6] is given as 29.1 ± 4.4 µM, the antibacterial activity (Bacillus subtilis) is given as “showed antibacterial activity” and the IC50 [2, 7] is given as 8.3 ± 1 µM. It also gave an IC50 [3, 8] of 23.5 ± 3.7 µM.
For `C=C(C)[C@@H]1CC[C@]2(C(=O)O)CC[C@]3(C)[C@H](CC[C@@H]4[C@@]5(C)C[C@@H](OC(=O)/C=C/c6ccc(O)cc6)[C@H](O)C(C)(C)[C@@H]5CC[C@]43C)[C@@H]12` [Compound 3, trans-coumaroyl alphitolic acid], the CC50 at 24 h [1] was 4.8 ± 0.9 µM, the IC50 ([2]; RAW264.7, 24 h) was 1.7 ± 0.3 µM and the “increase in potency of NO inhibition compared with compound 2” value ([2]; RAW 264.7, LPS + IFN-γ) was “ten-fold”. The IC50 ([3]; RAW264.7, 24 h) was 10.9 ± 2.3 µM.
For `C=C(C)[C@@H]1CC[C@]2(C(=O)O)CC[C@]3(C)[C@H](CC[C@@H]4[C@@]5(C)C[C@@H](O)[C@H](O)C(C)(C)[C@@H]5CC[C@]43C)[C@@H]12` [Compound 2, alphitolic acid], the IC50 (SCC2095 OSCC cells) is given as 15 µM, the CC50 at 24 h [1] is given as 18.6 ± 0.8 µM and the IC50 (SCC4 OSCC cells) is given as 12 µM. The “inhibition of TPA-induced topical inflammation” value [4] was “inhibit”, the IC50 ([2]; RAW264.7, 24 h) was 17.6 ± 0.7 µM and the IC50 ([3]; RAW264.7, 24 h) was 22.7 ± 1.1 µM.
With `C=C(C)[C@@H]1CC[C@]2(C(=O)O)CC[C@]3(C)[C@H](CC[C@@H]4[C@@]5(C)C[C@@H](OC(=O)/C=C\c6ccc(O)cc6)[C@H](O)C(C)(C)[C@@H]5CC[C@]43C)[C@@H]12` [Compound 4, cis-coumaroyl alphitolic acid] the CC50 at 24 h [1] was 8 ± 0.3 µM, the IC50 ([2]; RAW264.7, 24 h) was 3.5 ± 0.5 µM and the IC50 ([3]; RAW264.7, 24 h) was 5.6 ± 0.4 µM. For the same compound, the “inhibition of TNF-α (in words)” value ([3]; RAW 264.7, LPS + IFN-γ) was “strong inhibition”.
Work on `O=C(O)Cc1ccccc1Nc1c(Cl)cccc1Cl` [Diclofenac, diclofenac sodium, reference compound] yielded a CC50 at 24 h [1, 6] greater than 333 µM, an IC50 [2, 7] of 217 ± 43 µM and an IC50 [3, 8] greater than 333 µM.
In the case of `C=C(C)[C@@H]1CC[C@]2(C(=O)O)CC[C@]3(C)[C@H](CC[C@@H]4[C@@]5(C)[C@@H](C(=O)O)[C@H](OC(C)=O)C(C)(C)[C@@H]5CC[C@]43C)C12` (stereo partly shown) [Compound 6, emmolic acid acetate], the CC50 at 24 h [1] is reported as 13.1 ± 2.5 µM, the IC50 [2, 7] is reported as 14.7 ± 0.6 µM and the “anti-inflammatory activity (in words)” value ([2]; RAW 264.7, LPS + IFN-γ) is reported as “moderate anti-inflammatory activity”. It also gave an IC50 [3, 8] greater than 36 µM.
For `C=C(C)C1CCC2(C(=O)O)CCC3(C)C(CCC4C5(C)CCC(OC(=O)C=Cc6ccc(O)c(O)c6)C(C)(C)C5CCC43C)C12` (stereo not shown) [betulinic acid 3-O-caffeate], the “NO inhibition (in words)” value [5] is listed as “most active compound”.
